Patent US9850287B2, “Means and methods for breaking noncovalent binding interactions between molecules” (Het Nederlands Kanker Instituut, priority 2005, dated 2017)

Target: T1, HLA-A2.1 multimers (Homo sapiens, UniProt P04439, D140Y/D185E/D98H/E176V/E277Q/G131W/G231S/I119V/I121R/I166T/I218V/N151K/N90K/P208A/P217A/Q86G/Q94H/R138H/R169H)
T1 construct: made in house
Assay type: physicochemical

Substance | effect of UV exposure on amount of MHC complex recovered
GIL*FVFTL (SEQ ID NO:3) [G4*] | substantial reduction in the amount of MHC complex recovered
GILGFVF*L (SEQ ID NO:4) [T8*] | substantial reduction in the amount of MHC complex recovered
